Values of other authors as cited in publication PMC7904743, “WIDOCK: a reactive docking protocol for virtual screening of covalent inhibitors” (Journal of Computer-Aided Molecular Design, 2021).
Like-named read-outs stand apart in the source and are kept apart here.

Legend:
[1] = system: OTUB2; conditions: experimental actives if % labeling higher than 50%, cited from earlier work
[2] = thiol reactivity, cited from earlier work
[3] = system: NUDT7; conditions: protein labeling at 200 μM; experimental actives if % labeling higher than 50%; cited from earlier work
[4] = natural log of average rate constant k
[5] = natural logarithm of average rate constant
[6] = natural log of average kinetic rate constant
[7] = natural log of average rate constant

SMILES	OTUB2 % labeling [1] [%]	ln(avg k) [2, 4]	ln(avg k) [2, 5]	NUDT7 % labeling [3] [%]	OTUB2 % labeling ([1]; OTUB2 protein labeling) [%]	ln(avg k) [2, 6]	ln(avg k) [2, 7]
CN(C(=O)CCl)C1CCS(=O)(=O)C1 (stereo not drawn) [PCM-0102178, CN(C(=O)CCl)C1CCS(=O)(=O)C1]	0	-15.027	-15.027	0	–	–	–
O=C(CCl)N1N=C(c2ccco2)CC1c1ccco1 (stereo not drawn) [PCM-0102380, O=C(CCl)N1N=C(c2ccco2)CC1c1ccco1]	0	-15.395	-15.395	54	–	–	–
CS(=O)(=O)c1ccccc1NC(=O)CCl [PCM-0102141, CS(=O)(=O)c1ccccc1NC(=O)CCl]	0	-16.264	-16.264	0	–	–	–
Cc1cc(NC(=O)CCl)n(-c2ccccc2C)n1 [PCM-0102699, Cc1cc(NC(=O)CCl)n(-c2ccccc2C)n1]	0	-15.949	-15.949	0	–	–	–
N#Cc1c(NC(=O)CCl)sc2c1CCCC2 [PCM-0102580, N#Cc1c(NC(=O)CCl)sc2c1CCCC2]	10	-16.105	-16.105	72	–	–	–
N#CC1(NC(=O)CCl)CCC1 [PCM-0102854, N#CC1(NC(=O)CCl)CCC1]	–	–	–	9	0	-16.080	-16.080
CN(Cc1cc(C#N)ccc1F)C(=O)CCl [PCM-0102897, CN(Cc1cc(C#N)ccc1F)C(=O)CCl]	–	–	–	7	0	-15.579	-15.579
O=C(CCl)Nc1nc2ccccc2s1 [PCM-0102698, O=C(CCl)Nc1nc2ccccc2s1]	7	-15.845	-15.845	83	–	–	–
O=C(CCl)NNC(=O)c1ccccc1F [PCM-0102510, O=C(CCl)NNC(=O)c1ccccc1F]	52	-17.412	-17.412	0	–	–	–
CC(NC(=O)CCl)C12CC3CC(CC(C3)C1)C2 (stereo not drawn) [PCM-0102402, CC(NC(=O)CCl)C12CC3CC(CC(C3)C1)C2]	24	-17.061	-17.061	7	–	–	–
NS(=O)(=O)c1ccccc1NC(=O)CCl [PCM-0102903, NS(=O)(=O)c1ccccc1NC(=O)CCl]	–	–	–	29	14	-14.783	-14.783
O=C(CCl)N1CCN(C2CCS(=O)(=O)C2)CC1 (stereo not drawn) [PCM-0102405, O=C(CCl)N1CCN(C2CCS(=O)(=O)C2)CC1]	0	-15.476	-15.476	0	–	–	–
COC(=O)c1cccc(NC(=O)CCl)c1 [PCM-0103048, COC(=O)c1cccc(NC(=O)CCl)c1]	–	–	–	0	87	-15.795	-15.795
O=C(CCl)NCc1ccccc1F [PCM-0102149, O=C(CCl)NCc1ccccc1F]	62	-16.082	-16.082	0	–	–	–
O=C(CCl)N1CCC(C(=O)N2CCCC2)CC1 [PCM-0102655, O=C(CCl)N1CCC(C(=O)N2CCCC2)CC1]	0	-15.795	-15.795	0	–	–	–
CS(=O)(=O)c1ccc(Cl)c(NC(=O)CCl)c1 [PCM-0102220, CS(=O)(=O)c1ccc(Cl)c(NC(=O)CCl)c1]	0	-15.663	-15.663	5	–	–	–
O=C(CCl)N1c2ccccc2NC(=O)C12CCCC2 [PCM-0102159, O=C(CCl)N1c2ccccc2NC(=O)C12CCCC2]	0	-14.824	-14.824	18	–	–	–
O=C(CCl)N1CCN(c2cccc(Cl)c2)CC1 [PCM-0103032, O=C(CCl)N1CCN(c2cccc(Cl)c2)CC1]	–	–	–	22	21	-15.657	-15.657
CCC1CCCCN1C(=O)CCl (stereo not drawn) [PCM-0102828, CCC1CCCCN1C(=O)CCl]	–	–	–	4	0	-16.282	-16.282
Cc1n[nH]c(C)c1NC(=O)CCl [PCM-0102588, Cc1n[nH]c(C)c1NC(=O)CCl]	0	-16.991	-16.991	0	–	–	–
COc1ccc(NC(=O)CCl)cc1Cl [PCM-0102652, COc1ccc(NC(=O)CCl)cc1Cl]	24	-15.680	-15.680	12	–	–	–

SMILES	OTUB2 % labeling [1] [%]	ln(avg k) [2, 4]	ln(avg k) [2, 5]	NUDT7 % labeling [3] [%]	OTUB2 % labeling ([1]; OTUB2 protein labeling) [%]	ln(avg k) [2, 6]	ln(avg k) [2, 7]
COc1ccc(C2=CCN(C(=O)CCl)CC2)cc1 [PCM-0102929, COc1ccc(C2=CCN(C(=O)CCl)CC2)cc1]	–	–	–	45	0	-16.042	-16.042
O=C(CCl)Nc1ccc(Br)cc1F [PCM-0102926, O=C(CCl)Nc1ccc(Br)cc1F]	–	–	–	17	20	-16.464	-16.464
N#CC1(NC(=O)CCl)CCCCC1 [PCM-0102993, N#CC1(NC(=O)CCl)CCCCC1]	–	–	–	8	0	-16.137	-16.137
CC(C)C(=O)NNC(=O)CCl [PCM-0103014, CC(C)C(=O)NNC(=O)CCl]	–	–	–	0	9	-17.522	-17.522
O=C(CCl)Nc1nccs1 [PCM-0102242, O=C(CCl)Nc1nccs1]	0	-16.213	-16.213	0	–	–	–
Cc1ccc(S(=O)(=O)N2CCN(C(=O)CCl)CC2)cc1 [PCM-0102759, Cc1ccc(S(=O)(=O)N2CCN(C(=O)CCl)CC2)cc1]	–	–	–	12	0	-15.424	-15.424
N#CC(c1ccc(F)cc1)N1CCN(C(=O)CCl)CC1 (stereo not drawn) [PCM-0102341, N#CC(c1ccc(F)cc1)N1CCN(C(=O)CCl)CC1]	0	-14.949	-14.949	0	–	–	–
CC(=O)c1ccccc1NC(=O)CCl [PCM-0102282, CC(=O)c1ccccc1NC(=O)CCl]	0	-16.331	-16.331	0	–	–	–
CC(NC(=O)CCl)C(=O)N(C)C (stereo not drawn) [PCM-0102754, CC(NC(=O)CCl)C(=O)N(C)C]	–	–	–	0	0	-16.933	-16.933
Cc1ccc(NC(=O)CCl)cc1Cl [PCM-0102208, Cc1ccc(NC(=O)CCl)cc1Cl]	46	-15.859	-15.859	19	–	–	–
CN(Cc1cccs1)C(=O)CCl [PCM-0102636, CN(Cc1cccs1)C(=O)CCl]	0	-15.483	-15.483	17	–	–	–
O=C(CCl)N(c1ccc(F)cc1)C1C=CS(=O)(=O)C1 (stereo not drawn) [PCM-0102868, O=C(CCl)N(c1ccc(F)cc1)C1C=CS(=O)(=O)C1]	–	–	–	34	0	-15.576	-15.576
O=C(CCl)NC(=O)NCC(F)(F)F [PCM-0103037, O=C(CCl)NC(=O)NCC(F)(F)F]	–	–	–	0	30	-15.772	-15.772
COC(=O)c1ccc(C)c(NC(=O)CCl)c1 [PCM-0103027, COC(=O)c1ccc(C)c(NC(=O)CCl)c1]	–	–	–	5	0	-16.113	-16.113
N#Cc1cccc(C(=O)NNC(=O)CCl)c1 [PCM-0102857, N#Cc1cccc(C(=O)NNC(=O)CCl)c1]	–	–	–	0	41	-16.900	-16.900
Cc1ccc(C(=O)N2CCN(C(=O)CCl)CC2)cc1 [PCM-0102962, Cc1ccc(C(=O)N2CCN(C(=O)CCl)CC2)cc1]	–	–	–	0	0	-15.309	-15.309
O=C(CCl)NC(=O)NC1CC1 [PCM-0102411, O=C(CCl)NC(=O)NC1CC1]	0	-16.777	-16.777	0	–	–	–
CC1CC(=O)Nc2ccccc2N1C(=O)CCl (stereo not drawn) [PCM-0102697, CC1CC(=O)Nc2ccccc2N1C(=O)CCl]	0	-15.686	-15.686	22	–	–	–
CN(Cc1ccc(Cl)c(Cl)c1)C(=O)CCl [PCM-0102349, CN(Cc1ccc(Cl)c(Cl)c1)C(=O)CCl]	0	-15.496	-15.496	59	–	–	–
COc1ccccc1NC(=O)CCl [PCM-0102236, COc1ccccc1NC(=O)CCl]	28	-16.359	-16.359	0	–	–	–
Cc1nc(-c2ccc(C)c(NC(=O)CCl)c2)n[nH]1 [PCM-0103052, Cc1nc(-c2ccc(C)c(NC(=O)CCl)c2)n[nH]1]	–	–	–	12	9	-16.586	-16.586
